Values quoted from earlier work as cited in patent US20100111883A1, “CYCLODEXTRIN FORMULATIONS” (priority 2007, published 2010).

Experiments:
[1] = HPBCD alone, through the skin; stated as typical

## CC(O)COC[C@H]1O[C@@H]2O[C@H]3[C@H](O)[C@@H](O)[C@@H](O[C@H]4[C@H](O)[C@@H](O)[C@@H](O[C@H]5[C@H](O)[C@@H](O)[C@@H](O[C@H]6[C@H](O)[C@@H](O)[C@@H](O[C@H]7[C@H](O)[C@@H](O)[C@@H](O[C@H]8[C@H](O)[C@@H](O)[C@@H](O[C@H]1[C@H](O)[C@H]2O)O[C@@H]8COCC(C)O)O[C@@H]7COCC(C)O)O[C@@H]6COCC(C)O)O[C@@H]5COCC(C)O)O[C@@H]4COCC(C)O)O[C@@H]3COCC(C)O (stereo partly drawn) [HPBCD, β-cyclodextrin, 2-hydroxypropyl ether]
[1]
  skin penetration: about 0.1%
other
  water solubility: freely water soluble
